Assay results from ChEMBL document CHEMBL5331098, “Nanomolar β-glucosidase and β-galactosidase inhibition by enantiomeric α-1-C-alkyl-1,4-dideoxy-1,4-imino-arabinitol derivatives” (Eur J Med Chem, 2023).

Tests used:
Alpha-glucosidase = Alpha-glucosidase (Saccharomyces cerevisiae S288c, UniProt P53341+P38158+P07265); test: Inhibition of yeast alpha-glucosidase assessed as reduction of p-nitrophenol release using p-nitrophenyl glycoside as substrate by spectrophotometric analysis; type: protein assay
Oryza sativa = test: Inhibition of rice alpha-glucosidase assessed as reduction of p-nitrophenol release using p-nitrophenyl glycoside as substrate at 1000 uM by spectrophotometric analysis relative to control
Rattus norvegicus = species: Rattus norvegicus; test: Inhibition of rat intestinal maltase assessed as D-glucose release using maltose as substrate at pH 6.8 at 1000 uM by colorimetric method relative to control
[1] = Inhibition of almond beta-glucosidase assessed as reduction of p-nitrophenol release using p-nitrophenyl glycoside as substrate by spectrophotometric analysis; parameters: species or system Prunus dulcis
[2] = Inhibition of bovine liver beta-glucosidase assessed as reduction of p-nitrophenol release using p-nitrophenyl glycoside as substrate by spectrophotometric analysis; parameters: species or system Bos taurus
[3] = Inhibition of human lysosomal beta-glucosidase assessed as reduction of p-nitrophenol release using p-nitrophenyl glycoside as substrate by spectrophotometric analysis
[4] = molecular target: Alpha-galactosidase (Coffea arabica) (UniProt Q42656); test: Inhibition of coffee beans alpha-galactosidase assessed as reduction of p-nitrophenol release using p-nitrophenyl glycoside as substrate at 1000 uM by spectrophotometric analysis relative to control
Chain of Alpha-galactosidase (Coffea arabica) (Q42656 16-378 limits assumed): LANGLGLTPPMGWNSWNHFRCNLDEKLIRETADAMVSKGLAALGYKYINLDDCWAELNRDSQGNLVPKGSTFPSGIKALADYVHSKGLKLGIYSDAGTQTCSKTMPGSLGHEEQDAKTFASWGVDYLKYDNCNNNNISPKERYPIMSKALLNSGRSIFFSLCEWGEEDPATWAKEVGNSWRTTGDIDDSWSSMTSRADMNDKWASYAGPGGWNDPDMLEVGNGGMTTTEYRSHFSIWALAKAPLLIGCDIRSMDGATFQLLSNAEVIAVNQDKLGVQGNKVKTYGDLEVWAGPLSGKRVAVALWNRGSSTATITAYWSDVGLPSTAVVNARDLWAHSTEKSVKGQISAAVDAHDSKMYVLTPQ

[5] = Inhibition of bovine liver beta-galactosidase assessed as reduction of p-nitrophenol release using p-nitrophenyl glycoside as substrate by spectrophotometric analysis; parameters: species or system Bos taurus
[6] = molecular target: T1, Alpha-mannosidase (Canavalia ensiformis) (UniProt C0HJB3); test: Inhibition of jack bean alpha-mannosidase assessed as reduction of p-nitrophenol release using p-nitrophenyl glycoside as substrate at 1000 uM by spectrophotometric analysis relative to control
T1 sequence (whole entry): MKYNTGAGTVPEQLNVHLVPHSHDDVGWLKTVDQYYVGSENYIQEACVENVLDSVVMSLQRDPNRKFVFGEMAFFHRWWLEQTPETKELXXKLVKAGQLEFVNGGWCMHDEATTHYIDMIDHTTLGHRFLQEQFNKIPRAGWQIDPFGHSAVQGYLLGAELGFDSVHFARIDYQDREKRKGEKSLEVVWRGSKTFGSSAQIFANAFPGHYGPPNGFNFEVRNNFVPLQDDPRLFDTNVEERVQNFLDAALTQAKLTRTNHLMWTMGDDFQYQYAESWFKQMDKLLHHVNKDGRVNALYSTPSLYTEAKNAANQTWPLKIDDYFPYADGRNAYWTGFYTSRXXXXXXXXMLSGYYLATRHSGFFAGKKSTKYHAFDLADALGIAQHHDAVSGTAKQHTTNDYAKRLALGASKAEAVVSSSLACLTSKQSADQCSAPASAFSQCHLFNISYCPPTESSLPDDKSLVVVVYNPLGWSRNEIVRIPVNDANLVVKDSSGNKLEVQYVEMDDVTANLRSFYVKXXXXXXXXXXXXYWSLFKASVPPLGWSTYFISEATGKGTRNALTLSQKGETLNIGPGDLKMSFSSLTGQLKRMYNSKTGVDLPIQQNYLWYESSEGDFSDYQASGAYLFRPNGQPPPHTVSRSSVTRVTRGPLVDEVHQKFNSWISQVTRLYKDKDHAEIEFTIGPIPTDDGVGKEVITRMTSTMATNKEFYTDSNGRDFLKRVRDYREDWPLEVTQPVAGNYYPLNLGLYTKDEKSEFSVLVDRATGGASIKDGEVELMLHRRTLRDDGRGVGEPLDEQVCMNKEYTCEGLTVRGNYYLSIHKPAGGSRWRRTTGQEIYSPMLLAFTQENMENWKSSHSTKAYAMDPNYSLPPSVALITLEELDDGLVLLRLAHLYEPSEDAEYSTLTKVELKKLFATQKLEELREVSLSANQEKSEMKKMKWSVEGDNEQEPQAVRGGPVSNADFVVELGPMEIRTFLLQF

Helix pomatia = test: Inhibition of snail beta-mannosidase assessed as reduction of p-nitrophenol release using p-nitrophenyl glycoside as substrate at 1000 uM by spectrophotometric analysis relative to control
[7] = molecular target: T2, Tissue alpha-L-fucosidase (Bos taurus) (UniProt Q2KIM0); test: Inhibition of bovine kidney alpha-L-fucosidase assessed as reduction of p-nitrophenol release using p-nitrophenyl glycoside as substrate at 1000 uM by spectrophotometric analysis relative to control
T2 sequence (whole entry): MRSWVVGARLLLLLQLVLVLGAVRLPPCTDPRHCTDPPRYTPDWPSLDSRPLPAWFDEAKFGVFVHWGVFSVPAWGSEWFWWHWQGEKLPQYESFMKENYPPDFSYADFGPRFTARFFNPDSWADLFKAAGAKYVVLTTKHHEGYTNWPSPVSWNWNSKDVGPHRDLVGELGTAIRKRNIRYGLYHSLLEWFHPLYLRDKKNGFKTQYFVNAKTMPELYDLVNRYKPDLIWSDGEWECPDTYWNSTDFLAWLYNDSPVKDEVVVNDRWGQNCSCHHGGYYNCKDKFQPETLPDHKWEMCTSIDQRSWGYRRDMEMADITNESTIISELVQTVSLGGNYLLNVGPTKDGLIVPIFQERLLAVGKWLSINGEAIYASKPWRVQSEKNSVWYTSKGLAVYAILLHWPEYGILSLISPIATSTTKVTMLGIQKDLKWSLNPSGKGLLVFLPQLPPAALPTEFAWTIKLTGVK

Sus scrofa = species: Sus scrofa; test: Inhibition of porcine kidney alpha/alpha-trehalase assessed as reduction of p-nitrophenol release using p-nitrophenyl glycoside as substrate at 1000 uM by spectrophotometric analysis relative to control
Aspergillus niger = test: Inhibition of Aspergillus niger amyloglucosidase assessed as reduction of p-nitrophenol release using p-nitrophenyl-glycoside as substrate at 1000 uM by spectrophotometric analysis relative to control
Penicillium decumbens = test: Inhibition of Penicillium decumbens alpha-L-rhamnosidase assessed as reduction of p-nitrophenol release using p-nitrophenyl-glycoside as substrate at 1000 uM by spectrophotometric analysis relative to control
Beta-glucuronidase = Beta-glucuronidase (Escherichia coli (strain K12), UniProt P05804); test: Inhibition of Escherichia coli beta-glucuronidase assessed as reduction of p-nitrophenol release using p-nitrophenyl-glycoside as substrate by spectrophotometric analysis
Chain of Beta-glucuronidase (P05804 whole entry): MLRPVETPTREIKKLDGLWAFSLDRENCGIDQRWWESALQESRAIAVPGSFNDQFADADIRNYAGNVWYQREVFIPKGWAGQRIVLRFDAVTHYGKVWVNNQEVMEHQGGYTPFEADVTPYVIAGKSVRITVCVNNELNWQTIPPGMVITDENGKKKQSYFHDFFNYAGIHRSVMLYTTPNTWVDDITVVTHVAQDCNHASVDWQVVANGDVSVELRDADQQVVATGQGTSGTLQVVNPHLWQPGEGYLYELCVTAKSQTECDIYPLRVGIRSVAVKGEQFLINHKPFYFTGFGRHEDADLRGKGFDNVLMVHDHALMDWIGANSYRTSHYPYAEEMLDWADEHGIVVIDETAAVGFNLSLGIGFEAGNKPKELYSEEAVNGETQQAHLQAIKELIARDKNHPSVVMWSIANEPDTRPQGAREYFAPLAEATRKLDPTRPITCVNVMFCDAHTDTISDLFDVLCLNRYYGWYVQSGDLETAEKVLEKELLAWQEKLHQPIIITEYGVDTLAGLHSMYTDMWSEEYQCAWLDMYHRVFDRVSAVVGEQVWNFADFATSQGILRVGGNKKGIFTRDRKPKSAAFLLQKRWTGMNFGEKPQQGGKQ

Bos taurus = species: Bos taurus; test: Inhibition of bovine liver beta-glucuronidase assessed as reduction of p-nitrophenol release using p-nitrophenyl-glycoside as substrate at 1000 uM by spectrophotometric analysis relative to control
[8] = molecular target: Alpha-glucosidase (Saccharomyces cerevisiae S288c) (UniProt P53341+P38158+P07265); test: Inhibition of yeast alpha-glucosidase assessed as reduction of p-nitrophenol release using p-nitrophenyl glycoside as substrate at 1000 uM by spectrophotometric analysis relative to control; type: protein assay
[9] = Inhibition of Aspergillus niger amyloglucosidase assessed as reduction of p-nitrophenol release using p-nitrophenyl-glycoside as substrate by spectrophotometric analysis

Structure (SMILES)	IC50 (Alpha-glucosidase) [µM]	inhibition (Oryza sativa) [%]	inhibition (Rattus norvegicus) [%]	IC50 [1] [µM]	IC50 [2] [µM]	IC50 [3] [µM]	inhibition [4] [%]	IC50 [5] [µM]	inhibition [6] [%]	inhibition (Helix pomatia) [%]	inhibition [7] [%]	inhibition (Sus scrofa) [%]	inhibition (Aspergillus niger) [%]	inhibition (Penicillium decumbens) [%]	IC50 (Beta-glucuronidase) [µM]	inhibition (Bos taurus) [%]	inhibition [8] [%]	IC50 [9] [µM]
Cl.OC[C@H]1N[C@H]([C@@H](O)CCCCCCc2ccc(Cl)cc2)[C@@H](O)[C@@H]1O	59	16.5	1.1	1.2	0.07	6.1	0	0.024	0	45.4	2.1	5.5	41.7	3.5	13	0	–	–
OC[C@H]1N[C@H]([C@@H](O)CCCCCCc2ccc(F)cc2)[C@@H](O)[C@@H]1O	–	21.3	23.9	0.47	0.09	5.2	0.6	0.025	0	46.3	1.5	7.5	46.4	4	62	0.3	42.8	–
OC[C@H]1N[C@H]([C@@H](O)CCCCCCc2ccc(F)c(F)c2)[C@@H](O)[C@@H]1O	–	18.4	15	1.5	0.09	3.8	0	0.026	0	48.6	0.3	0	–	2.2	25	1.6	25.2	59
Cl.OC[C@H]1N[C@H](CCCCCCCc2cccc(F)c2)[C@@H](O)[C@@H]1O	17.2	21.3	32.8	11.5	0.04	–	1.1	0.011	3.1	36.6	2.7	7.5	–	10	19.4	6.9	–	40.9
Cc1ccc(CCCCCCC[C@H]2N[C@H](CO)[C@@H](O)[C@@H]2O)cc1.Cl	92	34.4	49.9	10	0.034	5.2	9.7	0.008	3.5	37	8.6	3.5	–	14.5	42	0	–	33
Cl.OC[C@H]1N[C@H](CCCCCCCc2ccc(F)cc2)[C@@H](O)[C@@H]1O	32.2	11.7	15.9	15.6	0.043	–	20.5	0.008	22.7	37.1	38.7	4	–	13	34.5	42.5	–	31.9
OC[C@H]1N[C@H]([C@@H](O)CCCCCCc2ccccc2)[C@@H](O)[C@@H]1O	–	15.8	18.6	0.62	0.13	7.6	0	0.042	0	37.6	0	4.5	39.7	3.5	43	0	14.1	–
